Among the data in PubChem BioAssay (NCI) are TGI values, retold here.

Holding throughout (assay): NCI-60 cell line screen, 48 h
For assay [1], the system named is COLO 205 colon.
Assay [2] deals with HOP-62 NSCLC.
Assay [3] relates to LOX IMVI melanoma.
The test system of assay [4] is OVCAR-4 ovarian.
For assay [5], the system named is OVCAR-5 ovarian.
In assay [6] the test system is SK-MEL-5 melanoma.
Assay [7] has as its system TK-10 renal.
The subject of assay [8] is M14 melanoma.
Assay [9] has as its system NCI/ADR-RES ovarian.
Assay [10] deals with SK-OV-3 ovarian.

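Following 48 hours of exposure in 96-well plates, responses at five concentrations were used to interpolate endpoints linearly. The concentration for full growth arrest is given as TGI.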 Where only a bound is given, the exact number is not on record here.

With `c1ccc(C2[C@@H]3CCCc4ccccc4C3=NN2c2ccccc2)cc1` (stereo partly drawn), the TGI was more than 100 µM in assay [1]; more than 100 µM in assay [2]; more than 100 µM in assay [3]; more than 100 µM in assay [4]; more than 100 µM in assay [5]; 47.1 µM in [6]. The molecule also gave a TGI in assay [7] of more than 100 µM.
As for `CCCC1(N)CC(OC)OC(C)C1O` (stereo not drawn), the TGI in [1], in assay [2], in assay [3], in assay [8], in [9] and in [5] was more than 100 µM in each case. Further, the TGI in assay [6], in [10] and in [7] was more than 100 µM in each case.
With `Cc1ccc2c(=O)c(-c3n[nH]c(=S)s3)c[nH]c2n1`, the TGI in [1], in assay [2], in assay [3], in assay [8], in assay [9] and in assay [4] was more than 100 µM each time. Further, the TGI in assay [5], in assay [6] and in assay [7] was more than 100 µM each time.
Turning to `OC(CN1CCCCC1)c1ccc(/C=C/c2ccc(Cl)cc2)cc1` (stereo not drawn), the TGI is 36 µM in [1]; more than 100 µM in [2]; 41.9 µM in assay [8]; more than 100 µM in [9]; more than 100 µM in [4]; more than 100 µM in [5]. Moreover, the TGI in assay [6] is 43.8 µM; in assay [10], more than 100 µM; in assay [7], more than 100 µM.
As to `CC[C@H](C)C1=C(OC(C)=O)[N@+]2([O-])Oc3ccc(-c4c(OC(C)=O)c(OC(C)=O)c(-c5ccc(OC(C)=O)cc5)c(OC(C)=O)c4OC(C)=O)cc3O[C@]2([C@@H](C)CC)C(=O)N1OC(C)=O`, the TGI was 15.8 µM in assay [1]; 22.1 µM in assay [3]; more than 50 µM in assay [8]; more than 50 µM in assay [9]; 39.6 µM in assay [4]; more than 50 µM in [5]. For the same molecule, the TGI in assay [6] was 22.5 µM; in [10] it was 49.4 µM; in [7], more than 50 µM.
As for `C[N+](C)(C)CC1CCCC/C1=N\O` (stereo not drawn), the TGI in assay [1], in assay [2], in [3], in assay [8], in assay [4] and in assay [5] was more than 100 µM throughout. Further, the TGI in assay [10] and in assay [7] was more than 100 µM each time.
Turning to `COC(=O)C1C2CC3C(OC(=O)C31)C2OC(=O)[C@](OC)(c1ccccc1)C(F)(F)F` (stereo partly drawn), the TGI in [1], in [2], in [3], in assay [8], in assay [4] and in [5] was more than 100 µM each time. Moreover, the TGI in assay [6], in assay [10] and in assay [7] was more than 100 µM each time.
In the case of `CN(C)c1ccc(/C=c2/c3cc([N+](=O)[O-])ccc3n3c2cc(-c2ccccc2)[n+]3C)cc1`, the TGI in assay [1] is 1.48 µM; in assay [2] it was 10.1 µM; in assay [8] it was 2.66 µM; in assay [9], more than 100 µM; in assay [4], 8.33 µM; in assay [5] it was 10.8 µM. The TGI in assay [6] turned out to be 1.11 µM; in [10] it was 11.3 µM; in [7], 9.32 µM.
Take `NCCCC[C@H](N)C(=O)Nc1ccc(-c2nc3ccccc3s2)cc1Cl`: the TGI worked out at 17.9 µM in assay [1]; 31.7 µM in assay [2]; 13.8 µM in assay [8]; 51.8 µM in [9]; 17.8 µM in [5]; 25.9 µM in [6]. For the same molecule, the TGI is 31.1 µM in [10] and 26.2 µM in assay [7].
Consider `OC(c1ccccc1)(c1cccnc1)C(O)(c1ccccc1)c1cccnc1` (stereo not drawn), for which the TGI in assay [1], in assay [8], in [9], in assay [5], in assay [6] and in assay [10] was more than 100 µM each time. The molecule also had a TGI in assay [7] of more than 100 µM.
Regarding `CC(=O)O[C@H]1CC[C@H]2[C@@H]3CCC(C(C)=O)[C@H](C(=O)O)[C@H]3CC[C@]12C` (stereo partly drawn), the TGI in assay [1], in assay [2], in assay [8], in assay [9], in assay [4] and in assay [5] was more than 100 µM in each case. The TGI in assay [6], in assay [10] and in [7] was more than 100 µM each time.
Regarding `Cc1ncc([N+](=O)[O-])n1CCNC(=O)CCCCCn1ccnc1[N+](=O)[O-]`, the TGI in assay [1], in assay [2], in [8], in assay [9], in assay [5] and in assay [6] was more than 100 µM in each case. In assay [10], the TGI is more than 100 µM.
For the molecule `CC(=O)CC(=O)/C=C/c1cccs1`, the TGI in [1], in assay [2], in [3], in assay [8], in assay [4] and in assay [5] was more than 100 µM each time. Also, the TGI in [6], in assay [10] and in assay [7] was more than 100 µM in each case.
Consider `Cc1cccc(NC2=NCCO2)c1Cl`, for which the TGI in assay [1], in assay [2], in assay [8], in assay [9], in [4] and in [5] was more than 100 µM in each case. In addition, the TGI in assay [6], in [10] and in assay [7] was more than 100 µM throughout.
`CC(C)(C)OC(=O)N1N=NC2C3OC(CC3=O)C21` (stereo not drawn): the TGI in [1], in [2], in assay [3], in assay [8], in [5] and in [10] was more than 100 µM each time. For the same molecule, the TGI in assay [7] was more than 100 µM.
For `NC(=O)N/N=C(/c1nc2ccc([N+](=O)[O-])cc2[nH]c1=O)C(O)c1ccco1` (stereo not drawn), the TGI in assay [1] was more than 100 µM; in assay [2], 94.6 µM; in assay [3] it was more than 100 µM; in assay [8], more than 100 µM; in [4] it was more than 100 µM; in assay [5], more than 100 µM. For the same molecule, the TGI in assay [6], in [10] and in [7] was more than 100 µM each time.
Take `O=C1NC2(C=Cc3c(ccc4ccccc34)O2)Oc2ccccc21` (stereo not drawn): the TGI in [1] is 42.5 µM; in [2], more than 100 µM; in [3], 39.9 µM; in assay [8] it was more than 100 µM; in assay [4], more than 100 µM; in [5], more than 100 µM. For the same molecule, the TGI in assay [6] is 29.5 µM; in [7], more than 100 µM.
For the molecule `CC(C)N(C(C)C)P(OCCC#N)OC1CC(n2cnc3c(=O)[nH]cnc32)OC1COC(=O)NCCCCCCNC(=O)OC(C)(C)c1ccc(-c2ccccc2)cc1` (stereo not drawn), the TGI was 31.2 µM in assay [1]; 44.2 µM in [2]; 32.7 µM in assay [3]; 34.6 µM in assay [8]; 38.2 µM in assay [4]; more than 100 µM in assay [5]. In addition, the TGI in assay [6] is 40.9 µM; in [10], more than 100 µM; in assay [7], more than 100 µM.
As to `Brc1cccc[n+]1-c1ccc2cc(-[n+]3ccccc3Br)ccc2c1`, the TGI is more than 100 µM in assay [1]; 75.6 µM in assay [2]; 34.7 µM in assay [3]; more than 100 µM in [8]; more than 100 µM in [9]; more than 100 µM in assay [5]. The TGI in [6] is more than 100 µM; in assay [10], 55.6 µM; in assay [7], 37.6 µM.
In the case of `CCN(CC)CCNc1ccc2ncn3c4cc(=O)ccc4c(O)c1c23`, the TGI stood at 16.6 µM in assay [1]; 17.9 µM in assay [2]; 5.91 µM in [3]; 14.4 µM in assay [8]; 13.5 µM in assay [4]; 32.5 µM in assay [5]. Besides, the TGI in assay [6] amounted to 12.1 µM; in assay [10] it was 41.9 µM; in assay [7], 47.1 µM.
For the molecule `COCCNC1CCC2(SCCS2)c2[nH]c3ccccc3c21` (stereo not drawn), the TGI was 82.5 µM in [1]; more than 100 µM in [2]; 36 µM in [3]; 30.4 µM in assay [8]; more than 100 µM in assay [9]; more than 100 µM in [4]. The TGI was more than 100 µM in [5], 57.4 µM in [6] and 44.6 µM in assay [7].
For `O=P1(c2ccccc2)C2=CCC=CC2C(c2ccccc2)N1Cc1ccccc1` (stereo not drawn), the TGI was 29 µM in assay [1]; 37.6 µM in assay [2]; 32.3 µM in assay [8]; 32.2 µM in assay [9]; more than 100 µM in assay [5]; 29.8 µM in assay [6]. The TGI in [10] was 31 µM; in assay [7], 35.4 µM.
With `COc1ccc(C2C(Cl)C(=O)N2NC(=O)Cc2ccccc2)cc1OC` (stereo not drawn), the TGI in assay [1], in [2], in [3], in assay [8], in assay [4] and in assay [5] was more than 100 µM throughout. Also, the TGI in assay [6], in assay [10] and in assay [7] was more than 100 µM throughout.
In the case of `CCOC(=O)NC(=O)c1c[nH]c(=O)[nH]c1=O`, the TGI in assay [1], in assay [2], in [3], in assay [8], in [4] and in assay [5] was more than 100 µM throughout. For the same molecule, the TGI in assay [6], in [10] and in assay [7] was more than 100 µM each time.
Consider `COC[C@@H](Cc1ccc(OC)c(OC)c1)[C@@H](COC)Cc1ccc(OC)c(OC)c1`, for which the TGI in assay [1], in assay [3], in assay [8], in assay [5], in assay [6] and in assay [10] was more than 100 µM throughout. The molecule further returned a TGI in assay [7] of more than 100 µM.
For the molecule `N#C/C(=C\c1ccccc1Br)C(=O)c1ccccc1`, the TGI was more than 100 µM in assay [1]; more than 100 µM in [2]; 28.3 µM in [3]; more than 68.1 µM in [8]; 58.8 µM in [4]; 99.1 µM in [5]. The TGI in [6] is 34.6 µM; in [10] it was more than 100 µM; in [7] it was more than 100 µM.
In the case of `CN1B(c2ccccc2)N(C)C(=O)N(C)C1=O`, the TGI in assay [1], in assay [8], in assay [9], in assay [5], in assay [6] and in [10] was more than 100 µM each time. Further, in assay [7], the TGI was more than 100 µM.
In the case of `C#CCOC(=O)C(N)CCSC` (stereo not drawn), the TGI in assay [1], in assay [2], in assay [3], in assay [8], in assay [9] and in assay [5] was more than 100 µM each time. In addition, the TGI in assay [6], in assay [10] and in [7] was more than 100 µM each time.
Regarding `CN1C(=O)N(C)C2(CCN(CCCCCCF)CC2)C1=O`, the TGI in [1], in assay [2], in [3], in [8], in assay [9] and in [5] was more than 100 µM throughout. Also, the TGI in assay [6], in [10] and in assay [7] was more than 100 µM each time.
In the case of `O=C1C[C@H](c2ccc(O)c(O)c2)Oc2cc(O)cc(O)c21`, the TGI in assay [1], in assay [2], in assay [3], in assay [8], in assay [4] and in assay [5] was more than 100 µM in each case. For the same molecule, the TGI in [6], in assay [10] and in assay [7] was more than 100 µM each time.
On to `C[N+](C)([O-])CCCNc1ccnc2cccc([N+](=O)[O-])c12`, for which the TGI in [1] was 46.4 µM; in assay [2] it was more than 100 µM; in [3] it was more than 100 µM; in [8] it was more than 100 µM; in [4] it was 55.3 µM; in [5], more than 100 µM. In addition, the TGI was 33.4 µM in assay [6], more than 100 µM in assay [10] and more than 100 µM in [7].
